Experimental data published in patent publication US9662322B2 (TEVA PHARMACEUTICAL INDUSTRIES, LTD., priority 2014, dated 2017).

Columns and labels:
[1] = tested on: subjects with relapsing remitting multiple sclerosis (RRMS); experiment: ALLEGRO (MS-LAQ-301) Phase III trial: relapse endpoints; assay type: in vivo, human
Description: The primary endpoint of the study was the number of confirmed relapses during the double-blind treatment period, which corresponds to the annualized relapse rate (ARR—number of relapses divided by total exposure of all patients). Secondary endpoints included disability as measured by Expanded Disability Status Scale (EDSS) changes confirmed at 3 months, and cumulative number of gadolinium enhancing (GdE) and new/enlarging T2 MRI lesions. […] Eligible subjects were equally randomized 1:1 into one of the following treatment arms: • 1. […] 21, 2007 (see, page 10, line 5 to page 11, line 3). • 2. Matching placebo for laquinimod arm: one capsule is administered once daily. The primary endpoint was the number of confirmed relapses during the double-blind study period. A relapse was defined as the appearance of one or more new neurological abnormalities or the reappearance of one or more previously observed neurological abnormalities lasting for at least 48 hours and after an improved neurological state for at least 30 days. An event was counted as a relapse if the subject's symptoms were accompanied by observed objective neurological changes consistent with at least one of the following: an increase of at least 0.5 in the EDSS score; an increase of one grade in two or more of the seven functional systems; or an increase of two grades in one functional system. Standardized treatment of relapses was intravenous methylprednisolone 1 g/day for up to five consecutive days based on the treating neurologist's decision. The number of confirmed relapses (and Annualized relapse rate) during the double blind study period. The analysis of the total number of confirmed relapses during the study period is based on baseline adjusted Quasi-Likelihood (over-dispersed) Poisson Regression. Using the Poisson regression with the treatment group as a covariate, the ARR of each group was calculated for the intent-to-treat (ITT) cohort as the total number of confirmed relapses for all patients in each group divided by the total patient years in that group. In addition to the treatment group, the following covariates were included: baseline EDSS score, log of the (prior 2-year number of relapses +1) and country or geographical region.

[2] = tested on: subjects with relapsing remitting multiple sclerosis (RRMS); experiment: ALLEGRO Phase III trial: disability endpoints (EDSS, MSFC); assay type: in vivo, human; conditions: for Time to confirmed (3 Ms) progression - EDSS, patients progressed: 24 months
Description: Secondary endpoints were disability progression as measured by the EDSS and the Multiple Sclerosis Functional Composite (MSFC). Confirmed disability progression was defined as an increase of ≧1.0 EDSS point from baseline if baseline EDSS was between 0 and 5.0, or an increase of ≧0.5 point if baseline EDSS was ≧5.5. In order to confirm EDSS progression, these increases had to be sustained for at least three months. Additional predefined disability endpoints include the proportion of patients without confirmed disability progression at 24 months; confirmed disability progression (defined as change in EDSS scores ≧1.0 points for baseline EDSS 0 to 5.0 or ≧5.5) sustained for six months; the accumulation of physical disability as measured by mean EDSS and the mean change in EDSS from baseline to last observed value (LOV). For the MSFC, the measure was the total MSFC z score at 24 months (including patients who terminated after 12 months). The 9-hole peg test (9HPT) and the Paced Auditory Serial Addition Test (PASAT) were performed three times at screening to reduce confounding training effects during the trial. • 1. Accumulation of physical disability measured by the time to confirmed progression of EDSS during the study period (A confirmed progression of EDSS is defined as a 1 point increase from baseline on EDSS score if baseline EDSS was between 0 and 5.0, or a 0.5 point increase if the baseline EDSS was 5.5, confirmed 3 months later. Progression cannot be confirmed during a relapse). • 2. Disability, as assessed by the MSFC score at the end of the treatment period (month 24/30). • 3. The cumulative number of new T2 lesions on scans taken on months 12 and 24 (and 30 in the case of the 6 months extended study). • 4. The cumulative number of enhancing lesions on T1-weighted images taken on months 12 and 24 (and 30 in case of extending the study for 6 months.) Safety and Tolerability Outcome Measures • 1. Adverse events. • 2. Vital signs. • 3. Weight. • 4. Physical examination. • 5. Electrocardiogram (ECG) findings. • 6. Clinical laboratory parameters. • 7. Proportion of subjects (%) who prematurely discontinued from the study, reason of discontinuation and the time to withdrawal. • 8. Proportion of subjects (%) who prematurely discontinued form the study due to AEs and the time to withdrawal. […] To control against type-I error, the secondary endpoints were analyzed only after a significant effect was found for the primary endpoint. […] The MSFC at month 24 was analyzed using a baseline-adjusted ANCOVA (SAS@PROC GLM) with baseline MSFC as 1 degree of freedom covariate and baseline EDSS score, log of the 2-year prior relapse rate +1 and country or geographical region as additional covariates. […]

[3] = post-hoc, vs placebo, listed as laquinimod

SMILES: CCN(C(=O)c1c(O)c2c(Cl)cccc2n(C)c1=O)c1ccccc1 [Laquinimod, laquinimod]
- Relapses requiring hospitalization (annualized rate) ([1]; post-hoc): 0.071
- ARR 1st year, Effect ([1]; post-hoc, vs placebo): 24% reduction
- ARR by median relapse duration: >34 days, Effect ([1]; post-hoc, vs placebo): 1.3% reduction
- ARR by median relapse duration: ≦34 days, Effect ([1]; post-hoc, vs placebo): 37% reduction
- ARR for dropouts, Effect ([1]; post-hoc, vs placebo): 26% reduction
- ARR, Full recovery, Effect ([1]; post-hoc, vs placebo): 13% reduction
- ARR, No recovery, Effect ([1]; post-hoc, vs placebo): 24% reduction
- Relapses requiring IV steroids, Effect ([1]; post-hoc, vs placebo): 27% reduction
- Relapses requiring hospitalization, Effect ([1]; post-hoc, vs placebo): 38% reduction
- Unconfirmed relapses, Effect ([1]; post-hoc, vs placebo): 17% reduction
- Relapses requiring IV steroids, Effect [1, 3]: 27 % reduction
- Relapses requiring hospitalization, Effect [1, 3]: 38 % reduction
- ARR, No recovery ([1]; post-hoc, recovery refers to EDSS before and after attack): 0.06
- Annualized rate of relapses requiring hospitalization and/or IV steroids, Effect ([1]; vs placebo): 27% reduction
- Relapse-free during study, increase in odds to be relapse free ([1]; vs placebo): 55% increase odds to
- Relapse-free during study, increase in odds to be relapse free ([1]; vs placebo, listed as laquinimod): 55%
- Time to confirmed (3 Ms) progression - EDSS, patients progressed [2]: 9.8% progressed
- Time to confirmed (3 Ms) progression - EDSS, patients progressed ([2]; listed as laquinimod): 9.8 % progressed
- EDSS score at LOV, median ([2]; last observed value): 2.5
- MSFC total z scores at 24 months, Effect: reduction of risk to progress ([2]; vs placebo): 34% reduction of
